Calls of active or inactive are those of the source.
Assays:
[1] = biological target: T1, Methionyl-tRNA synthetase, putative (Trypanosoma brucei brucei, UniProt Q38C91); format: functional, Trypanosoma brucei brucei strain 927/4 GUTat10.1
[2] = biological target: T1, Methionyl-tRNA synthetase, putative; format: functional, Trypanosoma brucei brucei strain 927/4 GUTat10.1; remark: listed apart in the source
[3] = Counterscreen for inhibitors of Trypanosoma brucei methionyl tRNA synthetase (MetRS): Luminescence-based cell-based high throughput dose response assay to identify compounds that are cytotoxic to Jurkat human T lymphocyte cells.; format: functional
[4] = biological target: T2, Sentrin-specific protease 6 (Homo sapiens, UniProt Q9GZR1); format: functional;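 also: Luminescence-based dose-response confirmatory assay of SENP6 inhibition, following up an ultra-high-throughput screen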
T2 sequence (Q9GZR1 whole entry): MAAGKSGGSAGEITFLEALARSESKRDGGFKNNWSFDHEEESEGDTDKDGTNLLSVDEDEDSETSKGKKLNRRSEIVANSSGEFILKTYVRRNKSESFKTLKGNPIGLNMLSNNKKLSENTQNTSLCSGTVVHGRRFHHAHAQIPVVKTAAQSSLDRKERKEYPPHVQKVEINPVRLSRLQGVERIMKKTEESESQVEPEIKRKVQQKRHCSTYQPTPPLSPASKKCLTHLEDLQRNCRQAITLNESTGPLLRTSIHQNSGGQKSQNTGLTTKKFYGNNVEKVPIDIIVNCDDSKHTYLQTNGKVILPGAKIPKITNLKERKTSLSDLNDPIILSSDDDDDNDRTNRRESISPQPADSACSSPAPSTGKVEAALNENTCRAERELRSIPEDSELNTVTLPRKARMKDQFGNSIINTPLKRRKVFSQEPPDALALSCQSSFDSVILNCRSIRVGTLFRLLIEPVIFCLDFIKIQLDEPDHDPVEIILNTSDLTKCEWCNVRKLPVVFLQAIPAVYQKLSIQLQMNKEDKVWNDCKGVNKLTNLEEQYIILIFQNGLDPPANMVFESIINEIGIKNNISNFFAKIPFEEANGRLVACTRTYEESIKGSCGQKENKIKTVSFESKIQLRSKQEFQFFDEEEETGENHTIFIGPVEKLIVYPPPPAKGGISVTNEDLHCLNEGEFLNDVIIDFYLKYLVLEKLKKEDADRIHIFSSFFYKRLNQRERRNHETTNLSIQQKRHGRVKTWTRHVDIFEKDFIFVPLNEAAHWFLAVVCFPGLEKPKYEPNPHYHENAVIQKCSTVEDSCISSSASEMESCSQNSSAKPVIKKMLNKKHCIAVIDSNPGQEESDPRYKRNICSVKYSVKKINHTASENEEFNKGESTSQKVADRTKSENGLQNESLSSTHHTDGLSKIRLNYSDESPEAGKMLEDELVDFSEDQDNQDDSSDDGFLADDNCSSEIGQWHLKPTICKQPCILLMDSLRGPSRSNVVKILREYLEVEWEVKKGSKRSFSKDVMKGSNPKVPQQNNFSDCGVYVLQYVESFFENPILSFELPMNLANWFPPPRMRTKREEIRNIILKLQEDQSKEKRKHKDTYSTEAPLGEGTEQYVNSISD

[5] = biological target: T3, Rac GTPase-activating protein 1 (Homo sapiens, UniProt Q9H0H5); assay: MgcRacGAP GTPase-activating activity inhibitors, confirmation, biochemical, ADP Hunter fluorescence, primary and confirmatory (AID 624330); format: functional
T3 sequence (Q9H0H5 whole entry): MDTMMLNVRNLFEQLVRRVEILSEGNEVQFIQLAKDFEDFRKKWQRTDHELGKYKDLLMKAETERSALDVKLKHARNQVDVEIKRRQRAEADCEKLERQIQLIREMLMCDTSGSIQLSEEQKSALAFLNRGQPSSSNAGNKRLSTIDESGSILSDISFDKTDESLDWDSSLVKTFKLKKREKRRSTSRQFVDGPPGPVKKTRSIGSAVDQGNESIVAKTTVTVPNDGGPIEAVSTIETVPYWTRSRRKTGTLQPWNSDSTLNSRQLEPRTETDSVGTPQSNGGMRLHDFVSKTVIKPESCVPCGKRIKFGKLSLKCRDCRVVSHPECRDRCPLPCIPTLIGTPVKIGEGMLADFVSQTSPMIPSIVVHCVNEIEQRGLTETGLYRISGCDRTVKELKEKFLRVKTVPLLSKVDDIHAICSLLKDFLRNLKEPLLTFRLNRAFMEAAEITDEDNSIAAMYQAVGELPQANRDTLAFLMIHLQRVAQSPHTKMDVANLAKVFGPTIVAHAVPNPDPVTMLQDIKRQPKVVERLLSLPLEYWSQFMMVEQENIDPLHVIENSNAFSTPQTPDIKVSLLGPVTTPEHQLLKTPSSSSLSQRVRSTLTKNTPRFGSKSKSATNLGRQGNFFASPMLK

Caspase-3 = biological target: T4, Caspase-3 (Homo sapiens, UniProt P42574); format: functional;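 also: Dose-response selectivity test against caspase-3 for candidate inhibitors of sentrin-specific proteases (SENPs)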
T4 sequence (P42574 whole entry): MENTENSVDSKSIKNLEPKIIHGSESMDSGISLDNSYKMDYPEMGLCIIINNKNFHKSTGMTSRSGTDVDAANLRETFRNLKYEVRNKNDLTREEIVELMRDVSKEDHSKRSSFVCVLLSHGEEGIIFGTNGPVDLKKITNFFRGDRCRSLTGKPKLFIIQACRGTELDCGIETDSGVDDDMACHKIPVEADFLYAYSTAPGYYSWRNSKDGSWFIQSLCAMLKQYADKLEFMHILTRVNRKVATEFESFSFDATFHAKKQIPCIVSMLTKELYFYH

[6] = biological target: T5, Sentrin-specific protease 7 (Homo sapiens, UniProt Q9BQF6); format: functional;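 also: Luminescence-based dose-response confirmation of ultra-high-throughput screening hits, measuring inhibition of SENP7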
T5 sequence (Q9BQF6 whole entry): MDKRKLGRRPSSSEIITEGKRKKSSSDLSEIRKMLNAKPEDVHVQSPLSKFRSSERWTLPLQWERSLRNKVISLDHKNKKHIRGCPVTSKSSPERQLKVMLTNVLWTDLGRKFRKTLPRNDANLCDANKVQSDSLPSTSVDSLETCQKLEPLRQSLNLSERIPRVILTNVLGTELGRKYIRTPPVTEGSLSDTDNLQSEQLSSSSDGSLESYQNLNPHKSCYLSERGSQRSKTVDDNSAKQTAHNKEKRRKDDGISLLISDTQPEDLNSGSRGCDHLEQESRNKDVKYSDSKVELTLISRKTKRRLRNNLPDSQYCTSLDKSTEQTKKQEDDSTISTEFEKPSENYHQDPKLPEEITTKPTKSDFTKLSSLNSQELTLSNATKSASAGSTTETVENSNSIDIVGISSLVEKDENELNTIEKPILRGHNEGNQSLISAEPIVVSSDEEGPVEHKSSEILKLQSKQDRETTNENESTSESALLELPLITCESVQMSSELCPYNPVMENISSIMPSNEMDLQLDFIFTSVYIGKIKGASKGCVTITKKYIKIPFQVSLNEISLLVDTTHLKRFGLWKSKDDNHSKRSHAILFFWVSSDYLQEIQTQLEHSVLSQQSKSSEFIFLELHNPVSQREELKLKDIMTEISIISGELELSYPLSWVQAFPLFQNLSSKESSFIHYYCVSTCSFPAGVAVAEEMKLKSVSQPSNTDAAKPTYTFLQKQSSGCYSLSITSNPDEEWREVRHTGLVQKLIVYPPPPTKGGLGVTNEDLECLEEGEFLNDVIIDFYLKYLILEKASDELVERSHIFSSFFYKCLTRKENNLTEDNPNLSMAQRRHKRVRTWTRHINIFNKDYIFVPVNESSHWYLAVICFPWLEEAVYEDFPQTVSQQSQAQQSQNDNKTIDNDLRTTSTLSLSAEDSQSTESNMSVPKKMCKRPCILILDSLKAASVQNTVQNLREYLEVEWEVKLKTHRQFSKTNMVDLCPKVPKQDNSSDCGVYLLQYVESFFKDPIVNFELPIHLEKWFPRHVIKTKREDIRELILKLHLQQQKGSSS

[7] = HeLa cell cytotoxicity, dose response, cytotoxicity control for MgcRacGAP inhibitor project (AID 624300); format: functional
[8] = biological target: T6, Sentrin-specific protease 8 (Homo sapiens, UniProt Q96LD8); format: functional;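 also: luminescence read-out of SENP8 inhibition, dose-response confirmation following an ultra-high-throughput screen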
T6 sequence (Q96LD8 whole entry): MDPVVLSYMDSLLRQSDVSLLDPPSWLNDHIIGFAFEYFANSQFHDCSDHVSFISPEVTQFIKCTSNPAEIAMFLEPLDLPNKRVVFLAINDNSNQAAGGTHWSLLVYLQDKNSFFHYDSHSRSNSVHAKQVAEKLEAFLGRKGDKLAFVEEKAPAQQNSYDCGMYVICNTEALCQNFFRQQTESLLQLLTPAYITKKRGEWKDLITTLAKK

T1 sequence (Q38C91 whole entry): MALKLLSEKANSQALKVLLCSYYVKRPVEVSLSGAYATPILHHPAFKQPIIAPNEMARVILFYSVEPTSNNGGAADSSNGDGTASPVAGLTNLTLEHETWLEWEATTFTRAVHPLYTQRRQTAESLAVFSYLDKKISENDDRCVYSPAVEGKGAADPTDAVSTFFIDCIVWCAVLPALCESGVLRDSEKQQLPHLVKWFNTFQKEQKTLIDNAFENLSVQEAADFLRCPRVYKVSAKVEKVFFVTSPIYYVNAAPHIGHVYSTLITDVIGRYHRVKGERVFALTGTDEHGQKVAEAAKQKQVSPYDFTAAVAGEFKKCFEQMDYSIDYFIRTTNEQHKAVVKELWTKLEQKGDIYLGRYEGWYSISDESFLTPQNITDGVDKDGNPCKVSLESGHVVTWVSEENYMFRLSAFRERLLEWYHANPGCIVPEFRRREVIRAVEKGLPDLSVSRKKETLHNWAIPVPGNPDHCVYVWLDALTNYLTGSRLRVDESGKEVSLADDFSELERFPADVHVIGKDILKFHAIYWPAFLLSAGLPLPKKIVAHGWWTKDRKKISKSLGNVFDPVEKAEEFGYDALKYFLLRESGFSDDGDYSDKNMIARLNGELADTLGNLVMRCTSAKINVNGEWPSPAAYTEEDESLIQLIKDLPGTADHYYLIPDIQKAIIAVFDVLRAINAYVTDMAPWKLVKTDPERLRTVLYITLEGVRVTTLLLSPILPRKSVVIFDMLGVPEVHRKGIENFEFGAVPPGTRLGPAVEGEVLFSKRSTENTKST

SMILES	IC50 [1]	IC50 [2]	IC50 [3]	IC50 [4]	IC50 [5]	IC50 (Caspase-3)	IC50 [6]	CC50 [7]	IC50 [8]
Cc1ccc(NC(=O)C=NOCC(=O)Nc2cc(C)cc(C)c2)cc1	8.66 µM (active)	119 µM (inactive)	83.3 µM (inactive)						
COc1ccc(NC(=O)n2ncc3cc(Cl)ccc32)cc1OC				15.1 µM (active)	230 µM (active)	25.5 µM (active)	6.04 µM (active)	100 µM (active)	20.3 µM (active)

Reference: ChEMBL document CHEMBL1201862, “PubChem BioAssay data set” (2004)
